Measurements as given in patent publication US20130109682A1, “CYCLIC ETHER COMPOUNDS USEFUL AS KINASE INHIBITORS” (NOVARTIS AG, priority 2010, published 2013).

Assays:
PIM1 = PIM1 (Homo sapiens, UniProt P11309); experiment: KinaseGlo Pim1 ATP depletion assay; type: biochemical
Procedure: KinaseGlo Pim1 ATP Depletion Assay
The activity of PIM1 is measured using a luciferase-luciferin based ATP detection reagent to quantify ATP depletion resulting from kinase-catalyzed phosphoryl transfer to a peptide substrate. Compounds to be tested are dissolved in 100% DMSO and directly distributed into white 384-well plates at 0.5 μA per well. To start the reaction, 10 μA of 5 nM Pim1 kinase and 80 μM BAD peptide (RSRHSSYPAGT-OH) in assay buffer (50 mM HEPES pH 7.5, 5 mM MgCl2, 1 mM DTT, 0.05% BSA) is added into each well. After 15 minutes, 10 μl of 40 μM ATP in assay buffer is added. Final assay concentrations are 2.5 nM PIM1, 20 μM ATP, 40 μM BAD peptide and 2.5% DMSO. The reaction is performed until approximately 50% of the ATP is depleted, then stopped with the addition of 20 μA KinaseGlo Plus (Promega Corporation) solution. The stopped reaction is incubated for 10 minutes and the remaining ATP detected via luminescence on the Victor2 (Perkin Elmer). […] IC50, the half maximal inhibitory concentration, represents the concentration of a test compound that is required for 50% inhibition of its target in vitro.

PIM2 = PIM2 (Homo sapiens, UniProt Q9P1W9); experiment: KinaseGlo Pim2 ATP depletion assay; type: biochemical
Procedure: KinaseGlo Pim2 ATP Depletion Assay
The activity of PIM2 is measured using a luciferase-luciferin based ATP detection reagent to quantify ATP depletion resulting from kinase-catalyzed phosphoryl transfer to a peptide substrate. Compounds to be tested are dissolved in 100% DMSO and directly distributed into white 384-well plates at 0.5 piper well. To start the reaction, 10 μl of 10 nM Pim2 kinase and 20 μM BAD peptide (RSRHSSYPAGT-OH) in assay buffer (50 mM HEPES pH 7.5, 5 mM MgCl2, 1 mM DTT, 0.05% BSA) is added into each well. After 15 minutes, 10 μl of 8 μM ATP in assay buffer is added. Final assay concentrations are 5 nM PIM2, 4 μM ATP, 10 μM BAD peptide and 2.5% DMSO. The reaction is performed until approximately 50% of the ATP is depleted, then stopped with the addition of 20 μl KinaseGlo Plus (Promega Corporation) solution. The stopped reaction is incubated for 10 minutes and the remaining ATP detected via luminescence on the Victor2 (Perkin Elmer).

GSK3β = GSK3β (Homo sapiens, UniProt P49841); experiment: GSK3β ATP depletion assay; type: biochemical; settings: read-out: GSK3b IC50
Procedure: GSK3β ATP Depletion Assay
The activity of GSK3β is measured using a luciferase-luciferin based ATP detection reagent to quantify ATP depletion resulting from kinase-catalyzed phosphoryl transfer to a peptide substrate. Compounds to be tested are dissolved in 100% DMSO and directly distributed into white 384-well plates at 0.5 μl per well. To start the reaction, 10 μl of 10 nM GSK3B kinase and 20 μM biotinylated CREB peptide ([…](pS)YR-NH2) in assay buffer (50 mM TRIS pH 7.5, 15 mM MgCl2, 1 mM DTT, 0.1% BSA) is added into each well. After 15 minutes, 10 μl of 2 μM ATP in assay buffer is added. Final assay concentrations are 5 nM GSK3B, […], 10 μM b-CREB peptide and 2.5% DMSO. The reaction is performed until approximately 50% of the ATP is depleted, then stopped with the addition of 20 μl KinaseGlo (Promega Corporation) solution. The stopped reaction is incubated for 10 minutes and the remaining ATP is detected via luminescence on the Victor2 (Perkin Elmer).

PIM3 = PIM3 (Homo sapiens, UniProt Q86V86); experiment: KinaseGlo Pim3 ATP depletion assay; type: biochemical
Procedure: KinaseGlo Pim3 ATP Depletion Assay
The activity of PIM3 is measured using a luciferase-luciferin based ATP detection reagent to quantify ATP depletion resulting from kinase-catalyzed phosphoryl transfer to a peptide substrate. Compounds to be tested are dissolved in 100% DMSO and directly distributed into white 384-well plates at 0.5 μl per well. To start the reaction, 10 μl of 10 nM Pim3 kinase and 200 μM BAD peptide (RSRHSSYPAGT-OH) in assay buffer (50 mM HEPES pH 7.5, 5 mM MgCl2, 1 mM DTT, 0.05% BSA) is added into each well. After 15 minutes, 10 μl of 80 μM ATP in assay buffer is added. Final assay concentrations are 5 nM […], 40 μM ATP, 100 μM BAD peptide and 2.5% DMSO. The reaction is performed until approximately 50% of the ATP is depleted, then stopped by the addition of 20 μl KinaseGlo Plus (Promega Corporation) solution. The stopped reaction is incubated for 10 minutes and the remaining ATP detected via luminescence on the Victor2 (Perkin Elmer).

[1] = test system: KMS11 (human myeloma cell line); experiment: Cell proliferation assay (CellTiter-Glo), KMS11; type: cell-based; settings: Homo sapiens, KMS-11; KMS11-Luc cells
Procedure: KMS11 (human myeloma cell line), were cultured in IMDM supplemented with 10% FBS, sodium pyruvate and antibiotics. Cells were plated in the same medium at a density of 2000 cells per well into 96 well tissue culture plates, with outside wells vacant, on the day of assay. MMl.s (human myeloma cell line), were cultured in RPMI1640 supplemented with 10% FBS, sodium pyruvate and antibiotics. Cells were plated in the same medium at a density of 5000 cells per well into 96 well tissue culture plates, with outside wells vacant, on the day of assay.
Test compounds supplied in DMSO were diluted into DMSO at 500 times the desired final concentrations before dilution into culture media to 2 times final concentrations. Equal volumes of 2× compounds were added to the cells in 96 well plates and incubated at 37° C. for 3 days.
After 3 days plates were equilibrated to room temperature and equal volume of CellTiter-Glow Reagent (Promega) was added to the culture wells. The plates were agitated briefly and luminescent signal was measured with luminometer.
Using the procedures of Cell Proliferation Assay, the EC50 concentration of indicated compounds of the examples in were determined in KMS11 cells as shown in Table 4.

Sequence of PIM2 (Q9P1W9 whole entry): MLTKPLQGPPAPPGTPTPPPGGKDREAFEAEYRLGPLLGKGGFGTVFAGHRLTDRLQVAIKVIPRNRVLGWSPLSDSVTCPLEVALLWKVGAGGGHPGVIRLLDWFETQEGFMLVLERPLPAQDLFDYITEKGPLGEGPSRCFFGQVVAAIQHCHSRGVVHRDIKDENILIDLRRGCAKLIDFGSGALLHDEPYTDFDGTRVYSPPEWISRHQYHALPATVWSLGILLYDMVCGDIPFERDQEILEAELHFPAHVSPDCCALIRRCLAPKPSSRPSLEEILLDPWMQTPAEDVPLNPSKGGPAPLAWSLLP
Sequence of PIM1 (P11309 whole entry): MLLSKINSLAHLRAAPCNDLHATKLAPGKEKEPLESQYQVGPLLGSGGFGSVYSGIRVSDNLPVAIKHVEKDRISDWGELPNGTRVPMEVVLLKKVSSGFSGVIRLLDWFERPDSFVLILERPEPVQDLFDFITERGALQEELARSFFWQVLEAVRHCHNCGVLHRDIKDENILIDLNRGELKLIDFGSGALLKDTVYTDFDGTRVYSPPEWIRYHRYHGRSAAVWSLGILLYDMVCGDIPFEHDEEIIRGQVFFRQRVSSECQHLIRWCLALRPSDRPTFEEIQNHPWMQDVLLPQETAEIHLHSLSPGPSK
Sequence of GSK3β (P49841 whole entry, species assumed): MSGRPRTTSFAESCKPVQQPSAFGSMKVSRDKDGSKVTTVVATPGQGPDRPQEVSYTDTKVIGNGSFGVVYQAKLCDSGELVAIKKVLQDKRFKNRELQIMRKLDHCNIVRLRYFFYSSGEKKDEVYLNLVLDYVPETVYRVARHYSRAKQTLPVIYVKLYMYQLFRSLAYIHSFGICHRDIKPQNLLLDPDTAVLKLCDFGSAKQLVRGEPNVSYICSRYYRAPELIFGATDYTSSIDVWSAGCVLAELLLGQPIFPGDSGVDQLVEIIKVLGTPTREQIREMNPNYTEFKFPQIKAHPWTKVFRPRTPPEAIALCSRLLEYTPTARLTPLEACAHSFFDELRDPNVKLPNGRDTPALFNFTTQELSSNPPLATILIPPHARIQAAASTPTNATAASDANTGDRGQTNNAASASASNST

Structure (SMILES)	IC50 (PIM1)	IC50 (PIM2)	IC50 (GSK3β)	IC50 (PIM3)	EC50 [1]
C[C@H]1O[C@@H](c2ccncc2NC(=O)c2ccc(F)c(-c3c(F)cccc3F)n2)C[C@@H](O)[C@@H]1O [Example 119, 6-(2,6-difluorophenyl)-N-(4-((2R,4R,5S,6R)-4,5-dihydroxy-6-methyltetrahydro-2H-pyran-2-yl)pyridin-3-yl)-5-fluoropicolinamide]	1 nM	11 nM	629 nM	2 nM	7200 nM
CC[C@]1(O)[C@H](O)C[C@H](c2ccncc2NC(=O)c2nc(-c3cnn(C)c3C)ccc2N)O[C@@H]1C [Example 156, 3-amino-6-(1,5-dimethyl-1H-pyrazol-4-yl)-N-(4-((2R,4R,5S,6R)-5-ethyl-4,5-dihydroxy-6-methyltetrahydro-2H-pyran-2-yl)pyridin-3-yl)picolinamide]	25.4 nM	532 nM	21.9 nM	42.4 nM	> 10000 nM
CC[C@H]1O[C@@H](c2ccncc2NC(=O)c2nc(-c3c(F)cccc3F)ncc2N)C[C@@H](O)[C@]1(C)O [Example 168, 5-amino-2-(2,6-difluorophenyl)-N-(4-((2R,4R,5S,6R)-6-ethyl-4,5-dihydroxy-5-methyltetrahydro-2H-pyran-2-yl)pyridin-3-yl)pyrimidine-4-carboxamide]	3 nM	2.3 nM	1030 nM	2.7 nM	5900 nM
O=C(Nc1cnccc1[C@H]1OCC[C@@H](CO)O1)c1csc(-c2c(F)cccc2F)n1 [Example 102, 2-(2,6-difluorophenyl)-N-(4-((2S,4S)-4-(hydroxymethyl)-1,3-dioxan-2-yl)pyridin-3-yl)thiazole-4-carboxamide]	28 nM	2890 nM	2000 nM	103 nM	> 10000 nM
CC[C@@]1(O)[C@H](C)O[C@H](c2ccncc2NC(=O)c2ccc(F)c(-c3c(F)cccc3F)n2)C[C@@H]1O [Example 73, 6-(2,6-difluorophenyl)-N-(4-((2S,4S,5S,6S)-5-ethyl-4,5-dihydroxy-6-methyltetrahydro-2H-pyran-2-yl)pyridin-3-yl)-5-fluoropicolinamide]	10 nM	1110 nM	3230 nM	200 nM	> 10000 nM
CC[C@H]1O[C@@H](c2ccncc2NC(=O)c2ccnc(-c3c(F)cccc3F)n2)C[C@@H](O)[C@@H]1O [Example 34, 2-(2,6-difluorophenyl)-N-(4-((2R,4R,5S,6R)-6-ethyl-4,5-dihydroxytetrahydro-2H-pyran-2-yl)pyridin-3-yl)pyrimidine-4-carboxamide]	22 nM	170 nM	61 nM	38 nM	5000 nM
Nc1cc(F)c(-c2ccccc2F)nc1C(=O)Nc1cnccc1C1=C[C@@H](O)[C@H](O)[C@@H](CCl)O1 [Example 29, 3-amino-N-(4-((2S,3S,4R)-2-(chloromethyl)-3,4-dihydroxy-3,4-dihydro-2H-pyran-6-yl)pyridin-3-yl)-5-fluoro-6-(2-fluorophenyl)picolinamide]	1 nM	1 nM	41 nM	1 nM	4670 nM
O=C(Nc1cnccc1[C@H]1C[C@@H](O)[C@@]2(O)CCC[C@H]2O1)c1ccc(F)c(-c2c(F)cccc2F)n1 [Example 204, 6-(2,6-difluorophenyl)-N-(4-((2R,4R,4aS,7aR)-4,4a-dihydroxyoctahydrocyclopenta[b]pyran-2-yl)pyridin-3-yl)-5-fluoropicolinamide]	0.5 nM	2.8 nM	46.2 nM	2 nM	5310 nM
O=C(Nc1cnccc1[C@@H]1CCCCO1)c1ccc(F)c(-c2c(F)cccc2F)n1 [Example 133, (S)-6-(2,6-difluorophenyl)-5-fluoro-N-(4-(tetrahydro-2H-pyran-2-yl)pyridin-3-yl)picolinamide]	3 nM	214 nM	2200 nM	10 nM	> 10000 nM
